Measured values as given in patent US12343326B2, “Psychoactive medicines and their use for treating psychiatric and neurological conditions and disorders” (Transcend Therapeutics, Inc., priority 2021, dated 2025).

What was measured:
[1] = target: T1, 5HT2A receptor (Homo sapiens, UniProt P28223); test: GPCRmax screen, agonist mode; assay type: cell-based
T1 construct: beta-galactosidase enzyme fragment (PathHunter complementation tag); host or cells: PathHunter cell lines

[2] = system: gene expression in amygdala, frontal cortex, hippocampus; test: RNA-sequencing of brain areas after a single dose; assay type: in vivo, rat; conditions: 10 mg/kg IP each
[3] = target: 168 GPCRs (Homo sapiens, UniProt O14842); test: β-arrestin based GPCR screen (PathHunter / GPCRmax), antagonist mode
Chain of 168 GPCRs (Homo sapiens, UniProt O14842) (O14842 whole entry): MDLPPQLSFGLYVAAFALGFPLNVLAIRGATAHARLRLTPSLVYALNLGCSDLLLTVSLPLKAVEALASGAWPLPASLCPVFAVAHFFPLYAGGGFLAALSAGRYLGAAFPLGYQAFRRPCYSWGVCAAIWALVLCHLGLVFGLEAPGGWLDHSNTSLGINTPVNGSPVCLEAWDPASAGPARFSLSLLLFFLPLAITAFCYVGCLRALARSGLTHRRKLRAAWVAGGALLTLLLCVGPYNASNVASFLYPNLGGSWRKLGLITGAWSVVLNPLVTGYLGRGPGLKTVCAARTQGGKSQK

[4] = target: 168 GPCRs (Homo sapiens, UniProt O95838); test: as above; conditions: GLP2R
Chain of 168 GPCRs (Homo sapiens, UniProt O95838) (O95838 whole entry): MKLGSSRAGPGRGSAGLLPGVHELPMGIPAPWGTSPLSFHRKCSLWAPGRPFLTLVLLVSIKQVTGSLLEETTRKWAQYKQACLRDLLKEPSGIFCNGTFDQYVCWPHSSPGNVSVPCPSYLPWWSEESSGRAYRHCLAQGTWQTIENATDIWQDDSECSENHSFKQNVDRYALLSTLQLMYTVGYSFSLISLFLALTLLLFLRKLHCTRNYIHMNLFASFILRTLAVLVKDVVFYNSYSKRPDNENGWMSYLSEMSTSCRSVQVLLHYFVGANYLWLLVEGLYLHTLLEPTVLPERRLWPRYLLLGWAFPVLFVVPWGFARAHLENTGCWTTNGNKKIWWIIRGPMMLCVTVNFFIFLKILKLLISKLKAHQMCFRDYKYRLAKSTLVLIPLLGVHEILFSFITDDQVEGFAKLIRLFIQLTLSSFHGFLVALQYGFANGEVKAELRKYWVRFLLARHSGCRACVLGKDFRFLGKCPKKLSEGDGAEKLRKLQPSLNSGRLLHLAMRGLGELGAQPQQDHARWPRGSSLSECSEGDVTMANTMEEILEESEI

[5] = target: 168 GPCRs (Homo sapiens, UniProt P14416); test: as above; conditions: DRD2L
[6] = target: 168 GPCRs (Homo sapiens, UniProt P16473); test: as above; conditions: TSHR(L)
Chain of 168 GPCRs (Homo sapiens, UniProt P16473) (P16473 21-764): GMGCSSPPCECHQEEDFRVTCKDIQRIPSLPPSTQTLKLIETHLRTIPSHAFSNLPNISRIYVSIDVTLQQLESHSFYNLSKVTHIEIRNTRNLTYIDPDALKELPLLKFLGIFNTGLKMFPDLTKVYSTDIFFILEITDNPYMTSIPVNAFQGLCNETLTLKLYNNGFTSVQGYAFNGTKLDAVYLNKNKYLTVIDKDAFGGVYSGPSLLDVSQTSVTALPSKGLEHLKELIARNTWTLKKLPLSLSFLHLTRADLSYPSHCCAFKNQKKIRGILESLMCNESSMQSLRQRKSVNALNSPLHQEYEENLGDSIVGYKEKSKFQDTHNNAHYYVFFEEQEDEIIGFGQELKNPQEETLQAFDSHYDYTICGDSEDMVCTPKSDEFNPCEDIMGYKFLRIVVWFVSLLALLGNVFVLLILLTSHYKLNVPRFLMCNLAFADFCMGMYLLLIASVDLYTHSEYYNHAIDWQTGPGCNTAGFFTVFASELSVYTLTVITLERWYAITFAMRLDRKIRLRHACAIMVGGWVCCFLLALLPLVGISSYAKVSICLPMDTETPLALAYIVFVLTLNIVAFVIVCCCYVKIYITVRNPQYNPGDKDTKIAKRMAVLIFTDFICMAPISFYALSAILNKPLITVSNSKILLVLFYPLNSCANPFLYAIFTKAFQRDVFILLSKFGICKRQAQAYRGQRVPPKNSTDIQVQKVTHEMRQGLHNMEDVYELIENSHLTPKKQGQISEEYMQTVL

[7] = target: 168 GPCRs (Homo sapiens, UniProt P20309); test: as above; conditions: CHRM3, Antagonist
Chain of 168 GPCRs (Homo sapiens, UniProt P20309) (P20309 whole entry): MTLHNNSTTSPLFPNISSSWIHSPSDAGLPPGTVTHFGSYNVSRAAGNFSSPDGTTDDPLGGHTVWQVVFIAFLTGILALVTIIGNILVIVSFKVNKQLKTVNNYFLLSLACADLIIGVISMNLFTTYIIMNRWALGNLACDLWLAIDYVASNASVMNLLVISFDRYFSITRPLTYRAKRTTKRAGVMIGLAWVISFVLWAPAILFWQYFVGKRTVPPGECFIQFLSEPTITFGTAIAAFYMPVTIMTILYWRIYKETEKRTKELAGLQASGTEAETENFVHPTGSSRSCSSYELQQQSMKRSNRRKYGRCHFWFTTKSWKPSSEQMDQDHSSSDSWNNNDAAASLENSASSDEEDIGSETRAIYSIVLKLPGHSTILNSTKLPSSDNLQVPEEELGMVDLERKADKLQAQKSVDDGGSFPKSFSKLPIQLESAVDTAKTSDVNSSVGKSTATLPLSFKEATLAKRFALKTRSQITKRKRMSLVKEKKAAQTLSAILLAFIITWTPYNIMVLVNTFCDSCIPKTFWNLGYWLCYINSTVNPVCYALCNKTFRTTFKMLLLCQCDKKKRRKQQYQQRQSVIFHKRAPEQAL

[8] = target: 168 GPCRs (Homo sapiens, UniProt P21728); test: as above
Chain of 168 GPCRs (Homo sapiens, UniProt P21728) (P21728 whole entry): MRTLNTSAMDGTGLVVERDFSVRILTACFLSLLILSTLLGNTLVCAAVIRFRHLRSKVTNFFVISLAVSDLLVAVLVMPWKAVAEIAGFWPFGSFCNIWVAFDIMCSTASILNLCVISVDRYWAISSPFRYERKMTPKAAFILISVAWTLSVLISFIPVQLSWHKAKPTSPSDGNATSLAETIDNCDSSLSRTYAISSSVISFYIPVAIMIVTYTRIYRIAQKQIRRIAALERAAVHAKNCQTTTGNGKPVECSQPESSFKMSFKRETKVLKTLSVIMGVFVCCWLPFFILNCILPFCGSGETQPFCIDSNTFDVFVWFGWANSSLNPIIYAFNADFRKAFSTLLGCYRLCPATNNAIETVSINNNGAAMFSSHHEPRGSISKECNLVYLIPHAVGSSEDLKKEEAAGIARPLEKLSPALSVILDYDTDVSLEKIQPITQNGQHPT

[9] = target: 168 GPCRs (Homo sapiens, UniProt P25106); test: as above
[10] = target: 168 GPCRs (Homo sapiens, UniProt P32238); test: as above; conditions: CCKAR, Antagonist
Chain of 168 GPCRs (Homo sapiens, UniProt P32238) (P32238 whole entry): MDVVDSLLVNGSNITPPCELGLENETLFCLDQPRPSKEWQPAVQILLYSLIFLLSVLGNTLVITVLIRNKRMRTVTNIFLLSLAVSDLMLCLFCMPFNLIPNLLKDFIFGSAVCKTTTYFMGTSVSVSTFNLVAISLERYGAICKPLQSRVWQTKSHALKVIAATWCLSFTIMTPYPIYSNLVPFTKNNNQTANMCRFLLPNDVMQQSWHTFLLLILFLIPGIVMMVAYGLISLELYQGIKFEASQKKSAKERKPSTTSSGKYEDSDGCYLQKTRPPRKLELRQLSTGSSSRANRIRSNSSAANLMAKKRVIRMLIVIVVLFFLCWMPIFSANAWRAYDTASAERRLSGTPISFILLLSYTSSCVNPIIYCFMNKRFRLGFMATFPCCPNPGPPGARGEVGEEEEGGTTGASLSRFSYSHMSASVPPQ

[11] = target: T2, 168 GPCRs (Homo sapiens, UniProt P32247); test: as above; conditions: BRS3, Antagonist
T2 sequence (P32247 1-399): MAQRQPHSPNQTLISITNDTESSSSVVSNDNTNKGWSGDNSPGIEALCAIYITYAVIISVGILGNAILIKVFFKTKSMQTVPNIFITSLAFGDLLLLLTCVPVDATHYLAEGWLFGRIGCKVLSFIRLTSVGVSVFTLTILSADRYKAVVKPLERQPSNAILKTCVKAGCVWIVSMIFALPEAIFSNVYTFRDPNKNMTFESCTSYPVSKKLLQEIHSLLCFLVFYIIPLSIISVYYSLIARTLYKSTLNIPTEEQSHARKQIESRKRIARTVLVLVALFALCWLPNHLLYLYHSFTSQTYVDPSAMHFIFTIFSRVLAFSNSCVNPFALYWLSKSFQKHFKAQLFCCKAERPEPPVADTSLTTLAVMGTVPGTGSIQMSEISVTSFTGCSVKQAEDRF

[12] = target: 168 GPCRs (Homo sapiens, UniProt P32249); test: as above
[13] = target: 168 GPCRs (Homo sapiens, UniProt P41968); test: as above; conditions: MC3R
Chain of 168 GPCRs (Homo sapiens, UniProt P41968) (P41968 whole entry): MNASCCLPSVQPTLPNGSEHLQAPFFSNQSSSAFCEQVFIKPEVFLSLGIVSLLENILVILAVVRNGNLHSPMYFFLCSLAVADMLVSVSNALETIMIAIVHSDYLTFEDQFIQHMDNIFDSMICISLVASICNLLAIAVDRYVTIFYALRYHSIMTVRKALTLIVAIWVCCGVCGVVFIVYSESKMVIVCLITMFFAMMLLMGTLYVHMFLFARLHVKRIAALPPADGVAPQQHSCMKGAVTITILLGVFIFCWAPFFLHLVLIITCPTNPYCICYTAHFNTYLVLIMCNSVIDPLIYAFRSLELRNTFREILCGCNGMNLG

[14] = target: 168 GPCRs (Homo sapiens, UniProt P43116); test: as above
Chain of 168 GPCRs (Homo sapiens, UniProt P43116) (P43116 whole entry): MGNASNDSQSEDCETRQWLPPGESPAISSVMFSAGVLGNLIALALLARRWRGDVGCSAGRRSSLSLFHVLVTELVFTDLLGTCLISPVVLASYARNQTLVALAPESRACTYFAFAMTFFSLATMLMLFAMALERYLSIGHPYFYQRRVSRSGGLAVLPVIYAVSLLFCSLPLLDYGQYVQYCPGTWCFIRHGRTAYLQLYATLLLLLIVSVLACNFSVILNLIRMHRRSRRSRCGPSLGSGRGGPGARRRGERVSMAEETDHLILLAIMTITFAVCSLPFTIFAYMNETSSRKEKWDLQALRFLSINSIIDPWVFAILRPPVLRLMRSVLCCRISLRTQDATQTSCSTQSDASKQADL

[15] = target: 168 GPCRs (Homo sapiens, UniProt P46092); test: as above; conditions: CCR10, Antagonist
[16] = target: 168 GPCRs (Homo sapiens, UniProt P46663); test: as above; conditions: BDKRB1, Antagonist
Chain of 168 GPCRs (Homo sapiens, UniProt P46663) (P46663 whole entry): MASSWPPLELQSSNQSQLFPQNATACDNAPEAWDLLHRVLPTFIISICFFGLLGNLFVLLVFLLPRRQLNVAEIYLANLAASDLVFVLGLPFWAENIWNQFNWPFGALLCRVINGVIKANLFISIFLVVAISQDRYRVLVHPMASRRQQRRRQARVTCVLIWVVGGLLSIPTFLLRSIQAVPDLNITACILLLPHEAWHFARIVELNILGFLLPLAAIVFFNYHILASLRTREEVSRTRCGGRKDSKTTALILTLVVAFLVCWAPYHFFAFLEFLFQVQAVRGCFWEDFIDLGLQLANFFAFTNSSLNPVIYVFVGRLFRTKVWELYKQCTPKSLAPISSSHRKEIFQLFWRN

[17] = target: 168 GPCRs (Homo sapiens, UniProt Q15722); test: as above; conditions: LTB4R
Chain of 168 GPCRs (Homo sapiens, UniProt Q15722) (Q15722 whole entry): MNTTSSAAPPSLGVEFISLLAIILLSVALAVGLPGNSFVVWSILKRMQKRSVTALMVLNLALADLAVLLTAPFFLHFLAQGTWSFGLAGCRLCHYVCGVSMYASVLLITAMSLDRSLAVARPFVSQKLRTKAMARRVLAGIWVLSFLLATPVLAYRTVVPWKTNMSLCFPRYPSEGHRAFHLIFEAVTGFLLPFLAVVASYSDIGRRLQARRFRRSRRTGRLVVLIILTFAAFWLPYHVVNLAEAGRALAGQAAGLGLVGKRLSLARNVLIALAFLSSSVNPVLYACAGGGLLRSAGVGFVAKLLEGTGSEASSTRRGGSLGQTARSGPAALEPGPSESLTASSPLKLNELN

[18] = target: 168 GPCRs (Homo sapiens, UniProt Q16581); test: as above; conditions: C3AR1, Antagonist
[19] = target: 168 GPCRs (Homo sapiens, UniProt Q9H1C0); test: as above

T1 sequence (P28223 whole entry, the tested form may be a part): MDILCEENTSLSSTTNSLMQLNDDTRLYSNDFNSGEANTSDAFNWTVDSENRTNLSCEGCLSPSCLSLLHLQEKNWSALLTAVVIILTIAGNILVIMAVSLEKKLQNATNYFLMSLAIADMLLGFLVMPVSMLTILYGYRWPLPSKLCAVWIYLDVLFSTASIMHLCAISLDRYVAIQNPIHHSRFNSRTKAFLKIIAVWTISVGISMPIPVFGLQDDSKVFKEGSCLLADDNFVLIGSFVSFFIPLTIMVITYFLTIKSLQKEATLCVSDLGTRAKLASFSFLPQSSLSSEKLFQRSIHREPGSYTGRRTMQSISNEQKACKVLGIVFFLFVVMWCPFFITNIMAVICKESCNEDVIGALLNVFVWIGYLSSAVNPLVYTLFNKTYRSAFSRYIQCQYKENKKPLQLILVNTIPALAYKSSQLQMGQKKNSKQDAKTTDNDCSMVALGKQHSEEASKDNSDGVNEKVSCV

Compound: CNC(C)C(=O)c1ccc2c(c1)OCO2 (centres unmarked) [methylone, 3,4-methylenedioxy-N-methylcathinone]
- agonist % activity ([1]; 1 or 10 mM, threshold 30%): no agonist or antagonist activity
- activity at 10 µM ([1]; HTR2A, Agonist mode, 10 uM): 1.4%
- activity at 1 µM ([1]; HTR2A, Agonist, 1 uM): -0.1%
- genes regulated by methylone that are also regulated by MDMA, amygdala [2]: 87%
- activity at 10 µM ([3]; FFAR1, Antagonist mode, 10 uM): -13.8%
- activity at 1 µM ([3]; FFAR1, Antagonist, 1 uM): -7.9%
- activity at 10 µM ([4]; Antagonist mode, 10 uM): 5.4%
- activity at 1 µM ([4]; Antagonist, 1 uM): 5.4%
- activity at 10 µM ([5]; Antagonist mode, 10 uM): 0.1%
- activity at 1 µM ([5]; Antagonist, 1 uM): 1.1%
- activity at 10 µM ([6]; Antagonist mode, 10 uM): -6.6%
- activity at 1 µM ([6]; Antagonist, 1 uM): 6.1%
- activity at 1 µM ([7]; 1 uM): -5.5%
- activity at 10 µM ([7]; 10 uM): 14.6%
- activity at 10 µM ([8]; DRD1, Antagonist mode, 10 uM): 7.8%
- activity at 1 µM ([8]; DRD1, Antagonist, 1 uM): 6%
- activity at 10 µM ([9]; CXCR7, Antagonist mode, 10 uM): 7.3%
- activity at 1 µM ([9]; CXCR7, Antagonist, 1 uM): 14.1%
- activity at 1 µM ([10]; 1 uM): -4.3%
- activity at 10 µM ([10]; 10 uM): -3.3%
- activity at 1 µM ([11]; 1 uM): 18.3%
- activity at 10 µM ([11]; 10 uM): 10.1%
- activity at 10 µM ([12]; EBI2, Antagonist mode, 10 uM): 2.6%
- activity at 1 µM ([12]; EBI2, Antagonist, 1 uM): 0.6%
- activity at 10 µM ([13]; Antagonist mode, 10 uM): 0.3%
- activity at 1 µM ([13]; Antagonist, 1 uM): -5.7%
- activity at 10 µM ([14]; PTGER2, Antagonist mode, 10 uM): -4.4%
- activity at 1 µM ([14]; PTGER2, Antagonist, 1 uM): 12.7%
- activity at 1 µM ([15]; 1 uM): 5.4%
- activity at 10 µM ([15]; 10 uM): 2.6%
- activity at 1 µM ([16]; 1 uM): 2.8%
- activity at 10 µM ([16]; 10 uM): 12.1%
- activity at 10 µM ([17]; Antagonist mode, 10 uM): -5.2%
- activity at 1 µM ([17]; Antagonist, 1 uM): 3.5%
- activity at 1 µM ([18]; 1 uM): 2.5%
- activity at 10 µM ([18]; 10 uM): 0.3%
- activity at 10 µM ([19]; GPR92, Antagonist mode, 10 uM): 5.8%
- activity at 1 µM ([19]; GPR92, Antagonist, 1 uM): -8%
